Measurements from patent US8815799B2, “Inhibiting striated muscle activator of RHO (stars) to improve glycemic control” (Joslin Diabetes Center, Inc., priority 2010, dated 2014).
“Also recorded” adds a separate entry of the source.

How the values were obtained:
[1] = tested on: SRF transcriptional activity; assay: SRF transcriptional activity, 4x CArG (SRE) promoter luciferase reporter in C2C12 cells; assay type: cell-based; conditions: activity induced by serum, dexamethasone or insulin, CCG-1423 1 μM, 16 hours pre-treatment (FIG. 10, 11B)
Protocol: FIG. 11B is a bar graph showing the effect of CCG on SRF transcriptional activity. 4× CArG promoter is activated in response to serum stimulation (FBS 2 hours, control) and following overnight treatment with 100 μM dexamethasone (DEX) in C2C12 myoblasts. This SRF-mediated transcriptional activity was blocked by pre-treatment with CCG-1423 (1 μM, 16 hours).
To determine whether SRF transcriptional activity is also changed in insulin resistance, 4× tandem repeat of SRF binding element (SRE) CArG boxes (Kuwahara et al., Mol. Cell Biol. 25:3173-3181 (2005)) promoters linked to a luciferase gene were used as a reporter. […] These increases in SRF transcriptional activity in insulin resistant states could cause up-regulation of SRF target gene expression.

Akt = Akt phosphorylation (phosphoimmunoblot) in C2C12 myotubes; assay type: cell-based; conditions: for increase in insulin-stimulated Akt phosphorylation: C2C12 myotubes, overnight 1 μM CCG-1423
Protocol: The next experiments were performed to determine whether SRF transcriptional activity, rather than expression of SRF itself, is important for maintaining appropriate insulin sensitivity. A new compound, CCG-1423, is available for specifically inhibiting SRF transcriptional activity (Evelyn et al., Mol. Cancer Ther. 6:2249-2260 (2007)). […] CCG-1423 was then evaluated to test the possibility that reducing SRF transcriptional activity improves insulin sensitivity. Indeed, this is the case.
(§1) In parallel, CCG-1423 enhanced insulin action in C2C12 myotubes. Overnight treatment with 1 μM CCG-1423 increased insulin-stimulated Akt phosphorylation, both in the presence and absence of dexamethasone (41% for both, p=0.01 and p=0.007, respectively), while having no effect on p42/44 ERK phosphorylation (FIG. 11C).

p42/44 ERK = p42/44 ERK phosphorylation in C2C12 myotubes; assay type: cell-based; conditions: overnight 1 μM CCG-1423 (FIG. 11C)
Protocol: as §1

IRS-1 = IRS-1 tyrosine phosphorylation and association with p85 PI 3-kinase in myotubes; assay type: cell-based
Protocol: FIG. 11D is a phosphoimmunoblot showing that CCG-1423 increases basal and insulin-stimulated tyrosine phosphorylation of IRS-1 and its association with p85-PI 3-kinase, in both control and DEX-treated myotubes. * indicates p<0.05, **p<0.01, ***p<0.001.
as §1

C2C12 myotubes = assay: Deoxyglucose uptake in cultured myotubes (FIG. 11E); assay type: cell-based
From the text: (§2) Since CCG-1423 increased insulin signalling in myotubes, we hypothesized that CCG-1423 might also enhance glucose uptake. In DMSO (vehicle)-treated myotubes, insulin stimulated a 2-fold increase in deoxyglucose uptake in a dose-dependent manner, consistent with prior reports and the low insulin responsiveness in cultured myotubes (FIG. 11E). […] In parallel, expression of the dominant glucose transporters GLUT4 and GLUT1 was increased by CCG-1423 treatment by 4.1 and 2.5 fold, respectively (p<0.004).
(§3) To determine whether increased expression of STARS can modulate glucose uptake, basal and insulin-stimulated glucose uptake in are measured in L6 myotubes overexpressing STARS (day 6 of differentiation). In brief, following overnight serum starvation, myotubes are treated with insulin (0 to 100 nM) for 20 minutes and then incubated with transport solution (140 mM NaCl, 20 mM Hepes, 5 mM KCl, 2.5 mM MgSO4, 1.0 mM CaCl2, 10 μM 2-deoxyglucose, 0.5 μCi/mL [^3H]-2-deoxyglucose) for 10 minutes. Cells are lysed in 0.05N NaOH and radioactivity determined by scintillation counting. All assays are performed in quadruplicate and corrected by uptake in cytochalasin-treated wells. Glucose transport assays are also performed in STARS-Myc-GLUT4 cells, given their higher insulin responsiveness.

L6 myotubes = assay: 2-deoxyglucose uptake in L6 myotubes (FIG. 11E legend); assay type: cell-based; conditions: CCG-1423 1 μM, 16 hours
Protocol: FIG. 11E is a line graph showing that both basal and insulin-stimulated 2-deoxyglucose uptake are increased by >4-fold in L6 myotubes following CCG-1423, with enhanced insulin sensitivity (1 μM, 16 hours). * indicates p<0.05, **p<0.01,***p<0.001.
as §3

GLUT4 = GLUT4 expression in myotubes; assay type: cell-based; conditions: myotubes treated with CCG-1423
From the text: as §2
(§4) To address whether STARS and MKL1-dependent SRF transcriptional activity contribute to the pathophysiology of insulin resistance, experiments were performed to test whether modulation of STARS expression and/or SRF activation can improve key cellular phenotypes associated with insulin resistance, including insulin action and glucose uptake. L6 myotubes stably expressing Myc-GLUT4 were infected with an adenovirus containing a short hairpin targeting STARS, resulting in a 54% reduction in STARS protein expression; this was associated with a 3.7-fold increase in basal glucose uptake and a 3.6-fold increase in insulin-stimulated glucose uptake (FIG. 19A).

GLUT1 = GLUT1 expression in myotubes; assay type: cell-based; conditions: myotubes treated with CCG-1423
From the text: as §2, §4

human myotubes = assay: Basal glucose uptake in human myotubes from control and diabetic subjects; assay type: cell-based
Protocol: The effects of CCG-1423 on human myotubes, and whether these effects would differ in myotubes derived from controls (n=2) vs. diabetic subjects (n=6), were also evaluated. […] The differential responsiveness in subjects with DM supports the concept that SRF pathways are more robustly activated in humans with insulin resistance and DM, and therefore potentially more sensitive to SRF inhibition.

Myc-GLUT4 L6 myotubes = assay: Glucose uptake in Myc-GLUT4 L6 myotubes; assay type: cell-based
Protocol: as §3, §4
To test the effect of reduced STARS expression (shRNA) and reduced SRF pathway activation (chemical inhibitor CCG-1423) in cultured myotubes, knock-down assays were performed. shSTARS target sequences (Forward 5′-[…] […] A-3′ (SEQ ID NO:1); Reverse 5′-[…] […] […]-3′ (SEQ ID NO:2)), or scrambled control (IDT RNA design), were cloned into pAdTrack-CMV adenoviral vector, and Myc-GLUT4 L6 myotubes were infected with amplified adenovirus (8×10^7 pfu/well, 6-well plate) at 3 days after differentiation. […] Thus, experimental reductions in STARS expression are associated with an increase insulin signaling and basal glucose uptake in cultured myotubes.
Since genetic knockdown of STARS expression enhanced glucose transport, a key question is whether pharmacologic inhibition of SRF transcriptional activity would similarly modulate glucose transport. Studies with CCG-1423, an SRF transcriptional inhibitor identified by compound library screening, were performed. […] By comparison, insulin stimulated glucose uptake by 1.6-fold (p<0.01; FIG. 20).

MKL1 = MKL1 cellular localization in C2C12 myoblasts; assay type: cell-based
Protocol: Since MKL1 is known to shuttle between the cytosol and nucleus to modulate target gene expression (Vartiainen et al., Science. 316:1749-1752 (2007)), the possibility arises that MKL1 localization may differ in insulin resistant state as compared to the normal state. […] In the basal state, MKL1 predominantly localized to cytosol and partially in nucleus. After 30 minutes of serum stimulation, MKL1 translocated to the […]. […] To determine whether MKL1 and G actin complex formation is changed in insulin resistance, the nuclear and cytosolic fractions from C2C12 myotubes were co-immunoprecipitated with MKL1 and blotted with beta actin.
To determine if the effects of CCG-1423 on SRF activity were mediated via MKL1 localization, MKL1 localization was assessed in C2C12 myoblasts treated with CCG-1423.

[2] = CCG-1423 treatment of high-fat diet-fed mice (glucose tolerance, insulin, body weight); assay type: in vivo
Protocol: (§5) To examine the therapeutic potential of this SRF inhibitor in vivo, we assessed responses to CCG-1423 treatment in mice with diet-induced obesity. […] The HFD mice were administered CCG-1423 (0.15 mg/kg body weight intraperitoneally) for two weeks.
In parallel, the high insulin levels associated with insulin resistance were normalized by CCG-1423 treatment (FIG. 13C).
To test this hypothesis, mice are treated with CCG-1423 in 2 models of murine insulin resistance: (1) high-fat diet-fed C57BL/6J mice (60% of calories from fat), or (2) genetically obese ob/ob mice. For these studies, mice are injected with CCG-1423 0.15 mg/kg/day or vehicle (DMSO), intraperitoneally, for 2 weeks. Body weight and food intake are monitored daily.

[3] = tested on: SRF, ELK1, SRF targets (ZYX, PDLIM7); assay: Gene expression in skeletal muscle of HFD mice treated with CCG-1423; assay type: in vivo
Protocol: as §5

STARS = STARS expression in C2C12 myotubes after actin disruption; assay type: cell-based; conditions: disruption of actin
From the text: Additional pathway analysis using MAPPFinder confirmed that serum response factor (SRF)-dependent and actin-related cytoskeleton gene expression is increased in diabetes, and more importantly, also in insulin resistance. The top-ranking single gene differentially expressed in skeletal muscle in the fasting state is the Actin-binding Rho activating protein (ABRA), or STARS, increased by 2.5 fold in individuals with type 2 diabetes (p<0.01). This gene regulates intracellular actin dynamics and subcellular localization of MKL1/2, thus contributing to SRF-dependent gene transcription. Since disruption of actin by latrunculin B increases STARS expression in C2C12 cells by 50% in C2C12 myotubes (p<0.03, not shown), it was hypothesize that increased STARS expression in DM may reflect disruption of actin dynamics and also contribute to the pattern of increased SRF-related gene expression. Similar patterns of SRF-dependent expression are also observed in adipose tissue from insulin resistant subjects and in insulin resistant muscle.

[4] = control and DEX-treated myotubes (FIG. 11D)
[5] = HFD mice, CCG-1423 0.15 mg/kg intraperitoneally, two weeks, vs vehicle-treated HFD mice, 0.15 mg/kg
[6] = CCG-1423 0.15 mg/kg intraperitoneally, two weeks

CC(ONC(=O)c1cc(C(F)(F)F)cc(C(F)(F)F)c1)C(=O)Nc1ccc(Cl)cc1 (stereo not shown) [CCG-1423]
inhibition of SRF transcriptional activity / SRE promoter activity [1]: specifically blocks SRF transcriptional activity; also recorded: reduced SRE promoter activity and efficiently blocked both serum- and dexamethasone-stimulated activation; also recorded: reduces SRE promoter activity; also recorded: inhibits SRF activity | increase in insulin-stimulated Akt phosphorylation (Akt; absence of dexamethasone): 41% | increase in insulin-stimulated Akt phosphorylation (Akt; presence of dexamethasone): 41% | insulin-stimulated Akt phosphorylation (marker of insulin sensitivity) (Akt; myotubes, with or without dexamethasone, insulin 100 nM, 10 minutes (FIG. 11A, 11C)): increased insulin-simulated Akt phosphorylation; also recorded: improves insulin-stimulated Akt phosphorylation; also recorded: increases insulin-stimulated Akt phosphorylation | p42/44 ERK phosphorylation (p42/44 ERK): no effect; also recorded: minimal change | association of IRS-1 with p85 regulatory subunit of PI 3-kinase (IRS-1; [4]): increases | basal and insulin-stimulated tyrosine phosphorylation of IRS-1 (IRS-1; [4]): increases | p85 expression (IRS-1; myotubes treated with CCG-1423): without altering | increase in glucose uptake, basal state (C2C12 myotubes; myotubes incubated with CCG-1423 (FIG. 11E)): 4 fold | insulin-stimulated glucose uptake response (C2C12 myotubes; myotubes incubated with CCG-1423, 1 μM insulin (FIG. 11E)): 11.5 fold | increase in basal and insulin-stimulated 2-deoxyglucose uptake (L6 myotubes): > 4 fold | increase in GLUT4 expression (GLUT4): 4.1 fold | increase in GLUT1 expression (GLUT1): 2.5 fold | basal increase in glucose uptake, mean (human myotubes; human myotubes from control subjects (n=2)): 1.2 fold | basal increase in glucose uptake, mean (human myotubes; human myotubes from diabetic subjects (n=6)): 3.2 fold | basal and insulin-stimulated glucose uptake (figure legend) (Myc-GLUT4 L6 myotubes; Myc-GLUT4 L6 myotubes (FIG. 19A, FIG. 20)): increases basal and insulin-stimulated 2-deoxyglucose uptake | increase in basal glucose uptake (Myc-GLUT4 L6 myotubes; Myc-GLUT4 L6 myotubes, CCG-1423 1 μM, 16 hours): 1.9 fold | increase in glucose uptake, combination with insulin (Myc-GLUT4 L6 myotubes; Myc-GLUT4 L6 myotubes, combination of CCG-1423 and insulin): 2.6 fold | MKL1 cytosol/nuclear localization (MKL1): almost exclusively localized to the cytoplasm; also recorded: reversed dexamethasone-induced MKL1 nuclear localization to partial cytoplasmic localization; also recorded: inhibition of MKL1 nuclear localization; also recorded: reduced nuclear translocation of MKL1 | serum insulin levels during glucose tolerance test ([2]; HFD mice, 15 minutes after glucose injection, vs vehicle-treated HFD animals): normalized; also recorded: significantly reduced | body weight [2, 5]: No significant change; also recorded: no differences; also recorded: not altered | food intake [2, 5]: No significant change; also recorded: no differences | in vivo glucose tolerance (intraperitoneal glucose tolerance test) [2, 5]: significantly improved; also recorded: improves glucose tolerance; also recorded: improved in vivo glucose tolerance | adiponectin levels ([2]; HFD mice, CCG-1423 two weeks): No differences | circulating fatty acid levels ([2]; HFD mice, CCG-1423 two weeks): No differences | insulin tolerance testing ([2]; HFD mice, CCG-1423 two weeks): No differences | glucose tolerance test area under the curve (AUC) ([2]; HFD mice, CCG-1423 two weeks, vs vehicle-treated HFD animals): significantly reduced | reduction of fed insulin levels ([2]; HFD-fed mice, CCG-1423 0.15 mg/kg/day intraperitoneally, 2 weeks, vs HFD-fed mice): 50% | expression of ELK1 [3, 6]: did not alter | expression of SRF [3, 6]: did not alter | expression of SRF targets in skeletal muscle, e.g., ZYX and PDLIM7 ([3]; CCG-1423 two weeks, vs vehicle-injected controls): significantly decreased

C/C1=C/C(=O)O[C@@H]2C[C@@H](CC[C@H](C)/C=C\CC1)O[C@@](O)([C@@H]1CSC(=O)N1)C2 [latrunculin B]
increase in STARS expression (STARS): 50%

insulin
insulin-stimulated increase in deoxyglucose uptake (C2C12 myotubes; DMSO (vehicle)-treated myotubes, dose-dependent): 2 fold | insulin-stimulated glucose uptake (Myc-GLUT4 L6 myotubes; Myc-GLUT4 L6 myotubes, insulin alone (FIG. 20)): 1.6 fold
